Results from patent US20080051350A1, “Therapeutic Use for a Group of Sulphated Polysaccharides” (Bioiberica, S.A., priority 2004, published 2008).
Marks after values point to notes of the source that are not given here.

Assays:
Assay type in all cases: cell-based
[1] = test system: Human articular chondrocytes; test: Synthesis of extracellular aggrecans determined by incorporation of 35S in primary culture of human chondrocytes in agarose gel; settings: for 35S incorporated into the aggrecans associated with the cells / 35S incorporated into the inter-territorial matrix's aggrecans / 35S incorporated into the re-synthesised aggrecans (total): 48 h
Experimental: Human articular chondrocytes were isolated following the methods described by W. T. Green Jr. (Clin. Orthop., 75, 248-260 (1971)) and K. E. Kuettner et al. (J. Cell. Biol., 93, 743-750 (1982)).
These chondrocytes were cultured in an agarose gel following the method described by P. D. Benya et al. (Cell, 30, 215-224, (1982)), and modified by G. Verbruggen et al. (Clin. Exp. Rheumatol., 8, 371-378 (1990)) and by M. Cornelissen et al. (J. Tiss. Cult. Meth., 15, 139-146 (1993)).
The synthesis of aggrecans was determined by the incorporation of ^35S, using labelled sodium sulphate Na2^35SO4 as radioactive precursor. After two weeks of culture, 10 μCi/mL of radio-labelled precursor were introduced in the culture medium for 48 h, as was the compound to be assayed (inulin polysulphate in Chemical Example 1) at different concentrations (0.0, 0.1, 0.5, 1.0, 5.0 μg/mL).
The synthesised ^35S aggrecans once again partially accumulated in the intercellular agarose matrix or else were released in the incubation medium.
Once the incubation period ended, the agarose gel was mechanically broken down and subsequently digested by means of 3 mL of a 50 U/mL […] solution in a 0.067 M phosphate buffer, at pH 6.0, in the presence of proteinase inhibitors.
The suspension thus produced was centrifuged; the supernatant containing the inter-territorial matrix's ^35S aggrecans and the incubation medium containing the ^35S aggrecan metabolites released in the extracellular matrix were subsequently united by means of chromatography.
The residue, which contained the chondrocytes and the associated ^35S aggrecans, was treated for 48 hours with 1 mL of a 4.0 M guanidium chloride solution in a 0.05M acetate buffer at pH 5.8 containing the proteinase inhibitors.
The purpose of this operation is to extract the ^35S aggrecans associated with the cells. The solution produced was centrifuged in order to separate the cells from the supernatant, which was subsequently separated by means of chromatography. The chromatography operations for the different fractions produced were performed on Sephadex G25 gel in a phosphate buffer pH 6.8 containing 0.01 M of Na2SO4, in order to separate the ^35S aggrecans from the free Na2^35SO4.
The radioactivity of each of the macromolecular eluants produced was measured and related to the number of chondrocytes contained in the initial culture, expressed in pg of ^35SO4 incorporated into the aggrecans, per million chondrocytes per hour.

[2] = test system: human articular chondrocytes treated with interleukin-1 (IL-1); test: Aggrecans associated with IL-1-treated chondrocytes, measured by immunocytochemistry / flux cytometry; settings: for Mean fluorescence intensity in the chondrocytes after labelling of aggrecan, M ± SD: one week of culture
Experimental: The human articular chondrocytes were isolated and cultured following the previously described methods.
The accumulation of aggrecans associated with the chondrocytes was measured, after a week of culture, by means of the immunocytochemistry technique described by L. Wang et al. (Osteoarthritis Cart., 9, 248-260 (2001)). The chondrocytes were treated with interleukin-1 (IL-1) in order to simulate a situation of inflammation and catabolism. The inulin polysulphate in Chemical Example 1 was added jointly with IL-1.
Once the incubation period ended, the chondrocytes were released from the agarose gel following the described method. The chondrocytes and the associated aggrecans were studied by means of flux cytometry using monoclonal antibodies specifically directed against the aggrecans' proteic part.

[3] = test system: rat chondrosarcoma cell line called LTC; test: Inhibition of aggrecan degradation induced by IL-1α (Western Blot, anti-aggrecan antibody G1 / NITGE); settings: 100 μg/mL, in the presence or not of IL-1α (10 ng/mL), 4 days, FIG. 1
Experimental: The assays were performed on chondrocyte cultures from a rat chondrosarcoma cell line called LTC.
The LTC cells were kept in a monolayer culture in a Gibco DMEM medium (Dulbecco's Modification of Eagle's Medium) (containing 4.5 g/L of glucose) supplemented with sodium bicarbonate (3.7 g/L), glutamine (2 mM), ascorbic acid (50 mg/L), gentamicin (50 mg/L), and bovine fetal serum Hyalone (10%), at pH 7.4.
The confluent LTC cell cultures were trypsinised and 40,000 cells per 0.5 mL of culture were seeded in 48-well plates. They were maintained for 5 days, during which time they deposited 15-30 μg of glycosaminoglycans (GAG) in each well.
The medium was separated, the cell membranes were washed by adding 5×1 mL of a catabolic medium {DMEM+4.5 g/L glucose supplemented with sodium bicarbonate (3.7 g/L), glutamine (2 mM), and 10 ng/mL of IL-1α (interleukin-1α) at pH 7.4). […]
For the Western Blot, 20 μL of 50 mM tris-acetate at pH 7.3 were added to each well. […] 25 μL-fractions of the supernatant were separated by electrophoresis (gel gradient 8-12% SDS PAGE) and analysed by means of a Western Blot using anti-aggrecan antibody G1. […] The antiserum was used at a 1:5,000 dilution and the peroxidase-conjugated goat anti-(rabbit IgG) was detected by means of the Amersham ECL Kit.

[4] = Donor F45, IL-1 + IPS 0.5 μg/mL
[5] = Donor F45, IL-1 + IPS 1.0 μg/mL
[6] = Donor F45, IL-1 + IPS 2.5 μg/mL
[7] = Donor M32, IL-1 + IPS 1.0 μg/mL
[8] = Donor M32, IL-1 + IPS 2.5 μg/mL
[9] = Donor M32, IL-1 + IPS 5.0 μg/mL

## Inulin Polysulphate Sodium Salt [IPS]
[1]; 35S incorporation, concentrations 0.1-5.0 μg/mL tested
  Concentration of optimum activity on aggrecan synthesis: about 0.5 μg/mL
[1]; IPS 0.1 μg/mL
  % Total: aggrecans associated with the cells with respect to the total quantity of aggrecans: 23.5%
  % Total: inter-territorial matrix's aggrecans with respect to the total quantity of aggrecans: 66.2%
  % Total: re-synthesised aggrecans with respect to the total quantity of aggrecans: 100%
  % change with respect to the non-treated control, aggrecans associated with the cells: 15.1%
  % change with respect to the non-treated control, re-synthesised aggrecans (total): 2.9%
  % change with respect to the untreated control, inter-territorial matrix's aggrecans: 1.4%
  35S incorporated into the aggrecans associated with the cells: 2,737 pg ^35S/10^6 cells/h
  35S incorporated into the inter-territorial matrix's aggrecans: 7,818 pg ^35S/10^6 cells/h
  35S incorporated into the re-synthesised aggrecans (total): 11,756 pg ^35S/10^6 cells/h
[1]; IPS 0.5 μg/mL
  % Total: aggrecans associated with the cells with respect to the total quantity of aggrecans: 18.4%
  % Total: inter-territorial matrix's aggrecans with respect to the total quantity of aggrecans: 70.7%
  % Total: re-synthesised aggrecans with respect to the total quantity of aggrecans: 100%
  % change with respect to the non-treated control, aggrecans associated with the cells: 28.8* %
  % change with respect to the non-treated control, re-synthesised aggrecans (total): 51.5* %
  % change with respect to the untreated control, inter-territorial matrix's aggrecans: 60.6%
  35S incorporated into the aggrecans associated with the cells: 3,064* pg ^35S/10^6 cells/h
  35S incorporated into the inter-territorial matrix's aggrecans: 12,383 pg ^35S/10^6 cells/h
  35S incorporated into the re-synthesised aggrecans (total): 17,312* pg ^35S/10^6 cells/h
[1]; IPS 1.0 μg/mL
  % Total: aggrecans associated with the cells with respect to the total quantity of aggrecans: 17.9%
  % Total: inter-territorial matrix's aggrecans with respect to the total quantity of aggrecans: 70.7%
  % Total: re-synthesised aggrecans with respect to the total quantity of aggrecans: 100%
  % change with respect to the non-treated control, aggrecans associated with the cells: 11.9%
  % change with respect to the non-treated control, re-synthesised aggrecans (total): 33.7* %
  % change with respect to the untreated control, inter-territorial matrix's aggrecans: 41.2* %
  35S incorporated into the aggrecans associated with the cells: 2,662 pg ^35S/10^6 cells/h
  35S incorporated into the inter-territorial matrix's aggrecans: 10,887* pg ^35S/10^6 cells/h
  35S incorporated into the re-synthesised aggrecans (total): 15,281* pg ^35S/10^6 cells/h
[1]; IPS 5.0 μg/mL
  % Total: aggrecans associated with the cells with respect to the total quantity of aggrecans: 17.4%
  % Total: inter-territorial matrix's aggrecans with respect to the total quantity of aggrecans: 67.9%
  % Total: re-synthesised aggrecans with respect to the total quantity of aggrecans: 100%
  % change with respect to the non-treated control, aggrecans associated with the cells: 14.2%
  % change with respect to the non-treated control, re-synthesised aggrecans (total): 3.0%
  % change with respect to the untreated control, inter-territorial matrix's aggrecans: 8.2%
  35S incorporated into the aggrecans associated with the cells: 2,041 pg ^35S/10^6 cells/h
  35S incorporated into the inter-territorial matrix's aggrecans: 8,340 pg ^35S/10^6 cells/h
  35S incorporated into the re-synthesised aggrecans (total): 12,106 pg ^35S/10^6 cells/h
[2]; [4]
  % Change with respect to the group treated with IL-1 (IL-1 = 100.0): 112.7* %
  Mean fluorescence intensity in the chondrocytes after labelling of aggrecan, M ± SD: 20.4 ± 0.2
[2]; [5]
  % Change with respect to the group treated with IL-1 (IL-1 = 100.0): 147.0* %
  Mean fluorescence intensity in the chondrocytes after labelling of aggrecan, M ± SD: 26.6 ± 0.1
[2]; [6]
  % Change with respect to the group treated with IL-1 (IL-1 = 100.0): 215.5* %
  Mean fluorescence intensity in the chondrocytes after labelling of aggrecan, M ± SD: 39.0 ± 0.2
[2]; [7]
  % Change with respect to the group treated with IL-1 (IL-1 = 100.0): 116.2* %
  Mean fluorescence intensity in the chondrocytes after labelling of aggrecan, M ± SD: 20.8 ± 1.2
[2]; [8]
  % Change with respect to the group treated with IL-1 (IL-1 = 100.0): 120.7* %
  Mean fluorescence intensity in the chondrocytes after labelling of aggrecan, M ± SD: 21.6 ± 1.1
[2]; [9]
  % Change with respect to the group treated with IL-1 (IL-1 = 100.0): 139.7* %
  Mean fluorescence intensity in the chondrocytes after labelling of aggrecan, M ± SD: 25.0 ± 1.4
[3]
  Effect on aggrecan degradation (band of aggrecan fragments labelled with antibody NITGE G1): aggrecan degradation is inhibited
